≈ marks a conversion by molar mass, not a printed value.

One test has as its system Salmonella enteritidis. Put plainly: Antimicrobial activity against Salmonella enteritis S1 assessed as inhibition of visible growth of bacteria incubated for 20 hrs by broth microdilution method. The conditions noted are these: Salmonella enterica. It counts as functional, Salmonella enterica subsp. enterica serovar Enteritidis. (In general: Dilution methods test growth across graded concentrations, often in twofold steps.)

Test [1] has as its system Enterococcus faecalis. Put plainly: Antimicrobial activity against Enterococcus faecalis J2 harboring erythromycin-resistance rRNA methylase B and oxazolidinone phenicol transferable resistance gene assessed as inhibition of visible growth of bacteria incubated for 20 hrs by broth microdilution method. Type of test: functional.
The subject of test [2] is Enterococcus faecalis. The experiment in a line: microbe, parasite or virus in culture. Type of test: functional. The conditions noted are these: SF23-1, time 20 hrs.
Description: Antimicrobial activity against Enterococcus faecalis SF23-1 harboring erythromycin-resistance rRNA methylase B, tetracycline efflux protein L and chloramphenicol-florfenicol resistance methylase assessed as inhibition of visible growth of bacteria incubated for 20 hrs by broth microdilution method
Test [3] concerns Enterococcus faecium. The experiment in a line: Antimicrobial activity against Enterococcus faecium HFY01 assessed as inhibition of visible growth of bacteria incubated for 20 hrs by broth microdilution method. It counts as functional.
Test [4] deals with Enterococcus faecium. The experiment in a line: Antimicrobial activity against Enterococcus faecium QF31 harboring erythromycin resistance rRNA methylase B and chloramphenicol-florfenicol resistance methylase assessed as inhibition of visible growth of bacteria incubated for 20 hrs by broth microdilution method. Type of test: functional.
For test [5], the system named is Enterococcus faecalis. Put plainly: Antimicrobial activity against Enterococcus faecalis ES01 harboring erythromycin-resistance rRNA methylase B and vanB-type vancomycin-resistance locus assessed as inhibition of visible growth of bacteria incubated for 20 hrs by broth microdilution method. It counts as functional.
Test [6] has as its system Staphylococcus aureus. Put plainly: Antimicrobial activity against Staphylococcus aureus YZSA-21 harboring erythromycin resistance rRNA methylase C assessed as inhibition of visible growth of bacteria incubated for 20 hrs by broth microdilution method. Type of test: functional.
Test [7] has as its system Pseudomonas aeruginosa. The experiment in a line: Antimicrobial activity against Pseudomonas aeruginosa PA14 assessed as inhibition of visible growth of bacteria incubated for 20 hrs by broth microdilution method. It counts as functional.
Test [8] has as its system Enterococcus faecium. The experiment in a line: Antimicrobial activity against Enterococcus faecium MC38 harboring erythromycin resistance rRNA methylase B and oxazolidinone-phenicol transferable resistance gene assessed as inhibition of visible growth of bacteria incubated for 20 hrs by broth microdilution method. It counts as functional.
For test [9], the system named is Staphylococcus aureus. The experiment in a line: microbe, parasite or virus in culture. Type of test: functional. The conditions noted are these: M147-2, time 20 hrs.
Description: Antimicrobial activity against Staphylococcus aureus M147-2 harboring erythromycin resistance rRNA methylase B, tetracycline efflux protein L and chloramphenicol-florfenicol resistance methylase assessed as inhibition of visible growth of bacteria incubated for 20 hrs by broth microdilution method
The next test deals with Streptococcus pyogenes. The experiment in a line: Antimicrobial activity against Streptococcus pyogenes DL02 harboring erythromycin-resistance rRNA methylase B assessed as inhibition of visible growth of bacteria incubated for 20 hrs by broth microdilution method. It counts as functional.
Test [10] has as its system Staphylococcus aureus. The experiment in a line: Antimicrobial activity against Staphylococcus aureus ATCC 29213 assessed as inhibition of visible growth of bacteria incubated for 20 hrs by broth microdilution method. It counts as functional.
Test [11] has as its system Staphylococcus aureus. Put plainly: Antimicrobial activity against Staphylococcus aureus YZSA-15 harboring erythromycin resistance rRNA methylase C and vancomycin resistance locus assessed as inhibition of visible growth of bacteria incubated for 20 hrs by broth microdilution method. It counts as functional.
The test system of test [12] is Streptococcus suis. Put plainly: Antimicrobial activity against Streptococcus suis P1/7 assessed as inhibition of visible growth of bacteria incubated for 20 hrs by broth microdilution method. Type of test: functional.
The subject of test [13] is Staphylococcus aureus. The experiment in a line: Antimicrobial activity against Staphylococcus aureus YZSA-24 harboring erythromycin resistance rRNA methylase C and methicillin resistance gene resistance locus assessed as inhibition of visible growth of bacteria incubated for 20 hrs by broth microdilution method. It counts as functional.
The test system of test [14] is Streptococcus suis. The experiment in a line: microbe, parasite or virus in culture. Type of test: functional. The conditions noted are these: SH0918, time 20 hrs.
Description: Antimicrobial activity against Streptococcus suis SH0918 harboring erythromycin-resistance rRNA methylase B, tetracycline efflux protein O and oxazolidinone phenicol transferable resistance gene assessed as inhibition of visible growth of bacteria incubated for 20 hrs by broth microdilution method
Test [15] concerns Staphylococcus aureus. Put plainly: microbe, parasite or virus in culture. It counts as functional. To be noted: M92-1, time 20 hrs.
Description: Antimicrobial activity against Staphylococcus aureus M92-1 harboring erythromycin resistance rRNA methylase B, tetracycline efflux protein L and oxazolidinone-phenicol transferable resistance gene assessed as inhibition of visible growth of bacteria incubated for 20 hrs by broth microdilution method
The subject of the next test is Klebsiella pneumoniae. Put plainly: Antimicrobial activity against Klebsiella pneumoniae 9-1 assessed as inhibition of visible growth of bacteria incubated for 20 hrs by broth microdilution method. It counts as functional.
A further test deals with Streptococcus agalactiae. The experiment in a line: Antimicrobial activity against Streptococcus agalactiae DL03 harboring erythromycin-resistance rRNA methylase B assessed as inhibition of visible growth of bacteria incubated for 20 hrs by broth microdilution method. Type of test: functional.
For test [16], the system named is Pseudomonas aeruginosa. Put plainly: Antimicrobial activity against Pseudomonas aeruginosa PA01 assessed as inhibition of visible growth of bacteria incubated for 20 hrs by broth microdilution method. It counts as functional.
For test [17], the system named is Acinetobacter baumannii. The experiment in a line: Antimicrobial activity against Acinetobacter baumannii 7979 assessed as inhibition of visible growth of bacteria incubated for 20 hrs by broth microdilution method. Type of test: functional.
A further test deals with Escherichia coli. Put plainly: Antimicrobial activity against Escherichia coli ATCC 25922 assessed as inhibition of visible growth of bacteria incubated for 20 hrs by broth microdilution method. Type of test: functional.
Test [18] deals with Enterococcus faecalis. The experiment in a line: Antimicrobial activity against Enterococcus faecalis JH2-2 assessed as inhibition of visible growth of bacteria incubated for 20 hrs by broth microdilution method. Type of test: functional.
The test system of test [19] is Acinetobacter baumannii. Put plainly: Antimicrobial activity against Acinetobacter baumannii AB11 assessed as inhibition of visible growth of bacteria incubated for 20 hrs by broth microdilution method. It counts as functional.

Take `CO[C@@]1(NC(=O)Cc2cccs2)C(=O)N2C(C(=O)O)=C(COC(N)=O)CS[C@@H]21` [CEFOXITIN]: the MIC in the test with Salmonella enteritidis is 32 µg/mL (≈ 74.9 µM); in the test with Enterococcus faecalis [1] it was greater than 32 µg/mL; against Enterococcus faecalis [2] it was greater than 32 µg/mL; with Enterococcus faecium [3] it was 8 µg/mL (≈ 18.7 µM); in the test with Enterococcus faecium [4], greater than 32 µg/mL; with Enterococcus faecalis [5], greater than 32 µg/mL. In addition, the MIC in the test on Staphylococcus aureus [6] was 4 µg/mL (≈ 9.36 µM); with Pseudomonas aeruginosa [7] it was greater than 32 µg/mL; with Enterococcus faecium [8], greater than 32 µg/mL; against Staphylococcus aureus [9], 4 µg/mL (≈ 9.36 µM); in the test on Streptococcus pyogenes, 1 µg/mL (≈ 2.34 µM); in the test on Staphylococcus aureus [10] it was 1 µg/mL (≈ 2.34 µM). Also, the MIC in the test on Staphylococcus aureus [11] is 2 µg/mL (≈ 4.68 µM); in the test on Streptococcus suis [12], 1 µg/mL (≈ 2.34 µM); in the test on Staphylococcus aureus [13], 32 µg/mL (≈ 74.9 µM); in the test on Streptococcus suis [14], 8 µg/mL (≈ 18.7 µM); in the test with Staphylococcus aureus [15] it was 4 µg/mL (≈ 9.36 µM); with Klebsiella pneumoniae, greater than 32 µg/mL. The MIC in the test on Streptococcus agalactiae was 16 µg/mL (≈ 37.4 µM); with Pseudomonas aeruginosa [16] it was greater than 32 µg/mL; with Acinetobacter baumannii [17], greater than 32 µg/mL; in the test with Escherichia coli, 0.25 µg/mL (≈ 0.585 µM); in the test with Enterococcus faecalis [18], greater than 32 µg/mL; with Acinetobacter baumannii [19], 16 µg/mL (≈ 37.4 µM).
With `CCC[C@@H]1C[C@@H](C(=O)N[C@@H]([C@H]2O[C@H](SC)[C@H](O)[C@@H](O)[C@H]2O)[C@H](C)Cl)N(C)C1` [CLINDAMYCIN], the MIC is greater than 32 µg/mL in the test with Salmonella enteritidis; greater than 32 µg/mL with Enterococcus faecalis [1]; greater than 32 µg/mL against Enterococcus faecalis [2]; 0.5 µg/mL (≈ 1.18 µM) with Enterococcus faecium [3]; greater than 32 µg/mL in the test with Enterococcus faecium [4]; greater than 32 µg/mL with Enterococcus faecalis [5]. In addition, the MIC is greater than 32 µg/mL in the test with Staphylococcus aureus [6]; greater than 32 µg/mL in the test with Pseudomonas aeruginosa [7]; greater than 32 µg/mL in the test with Enterococcus faecium [8]; greater than 32 µg/mL against Staphylococcus aureus [9]; greater than 32 µg/mL in the test with Streptococcus pyogenes; 0.125 µg/mL (≈ 0.294 µM) in the test with Staphylococcus aureus [10]. Further, the MIC in the test on Staphylococcus aureus [11] was greater than 32 µg/mL; in the test with Streptococcus suis [12], 0.125 µg/mL (≈ 0.294 µM); in the test with Staphylococcus aureus [13], greater than 32 µg/mL; in the test with Streptococcus suis [14], greater than 32 µg/mL; with Staphylococcus aureus [15], greater than 32 µg/mL; in the test on Klebsiella pneumoniae it was greater than 32 µg/mL. Also, the MIC was greater than 32 µg/mL with Streptococcus agalactiae; greater than 32 µg/mL in the test with Pseudomonas aeruginosa [16]; greater than 32 µg/mL in the test on Acinetobacter baumannii [17]; greater than 32 µg/mL in the test with Escherichia coli; 0.5 µg/mL (≈ 1.18 µM) with Enterococcus faecalis [18]; 0.5 µg/mL (≈ 1.18 µM) in the test on Acinetobacter baumannii [19].
Take `C[C@H]1c2cccc(O)c2C(=O)C2=C(O)[C@]3(O)C(=O)C(C(N)=O)=C(O)[C@@H](N(C)C)[C@@H]3[C@@H](O)[C@@H]21` [DOXYCYCLINE ANHYDROUS]: the MIC is greater than 32 µg/mL with Salmonella enteritidis; 8 µg/mL (≈ 18 µM) with Enterococcus faecalis [1]; 16 µg/mL (≈ 36 µM) in the test with Enterococcus faecalis [2]; less than 0.06 µg/mL in the test on Enterococcus faecium [3]; 16 µg/mL (≈ 36 µM) with Enterococcus faecium [4]; 2 µg/mL (≈ 4.5 µM) in the test with Enterococcus faecalis [5]. Also, the MIC in the test on Staphylococcus aureus [6] was 0.25 µg/mL (≈ 0.563 µM); in the test on Pseudomonas aeruginosa [7], 16 µg/mL (≈ 36 µM); with Enterococcus faecium [8] it was 16 µg/mL (≈ 36 µM); with Staphylococcus aureus [9] it was greater than 32 µg/mL; in the test on Streptococcus pyogenes, 2 µg/mL (≈ 4.5 µM); in the test on Staphylococcus aureus [10] it was 0.25 µg/mL (≈ 0.563 µM). The MIC in the test with Staphylococcus aureus [11] was 0.25 µg/mL (≈ 0.563 µM); in the test with Streptococcus suis [12], 0.125 µg/mL (≈ 0.281 µM); in the test with Staphylococcus aureus [13], 0.5 µg/mL (≈ 1.13 µM); in the test with Streptococcus suis [14], 16 µg/mL (≈ 36 µM); with Staphylococcus aureus [15], greater than 32 µg/mL; in the test on Klebsiella pneumoniae, greater than 32 µg/mL. Also, the MIC is less than 0.06 µg/mL with Streptococcus agalactiae; 8 µg/mL (≈ 18 µM) in the test on Pseudomonas aeruginosa [16]; greater than 32 µg/mL in the test with Acinetobacter baumannii [17]; 1 µg/mL (≈ 2.25 µM) with Escherichia coli; 4 µg/mL (≈ 9 µM) in the test on Enterococcus faecalis [18]; less than 0.06 µg/mL in the test with Acinetobacter baumannii [19].

(Values after ChEMBL document CHEMBL6078677, “Discovery and optimization of tetrahydroacridine derivatives as a novel class of antibiotics against multidrug-resistant Gram-positive pathogens by targeting type I signal peptidase and disrupting bacterial membrane” (Eur J Med Chem, 2025).)
